Test results from US9682931B2, “Aryloyl(oxy or amino)pentafluorosulfanylbenzene compound, pharmaceutically acceptable salt thereof, and prodrugs thereof” (UBE INDUSTRIES, LTD., priority 2013, dated 2017).
Converted amounts (≈) assume the structure as drawn. Like-named read-outs stand apart in the source and are kept apart here. Marks after values point to notes of the source that are not given here.

Experiments:
[1] = system: Salmonella typhimurium TA98 strain and TA100 strain; assay: Growth inhibitory action and bactericidal action on salmonella (preincubation method, with and without S9 mix); assay type: cell-based; details: for Bactericidal action: lowest concentration at which all bacterial cells were killed
Description: Growth inhibitory action and bactericidal action on salmonella
1) Preparation of Test-Substance Solution
Test substances (compounds listed in Table 1) each were prepared by dissolving it in DMSO when used. Preparation was made in such a manner that the highest dose became 5000 μg/plate and the dose lower than this was prepared by a dilution method. In the table, reference numerals of individual compounds correspond to the numbers of the individual compounds synthesized in the above Examples (the same applies to the following Tables).
Salmonella typhimurium TA98 strain and TA100 strain were used.
These were supplied by Japan Bioassay Research Center, proliferated and examined for genetic properties and other properties in accordance with customary methods, in advance. After these strains were confirmed to have these properties, they are cryopreserved (−80° C.) with a DMSO-added medium; and thawed for use in each test.
3) A cryopreserved strain was thawed and inoculated in a 2.5% aqueous nutrient broth (OXOID No. 2) solution and cultured while shaking at 37° C. for 7 hours to obtain a cell suspension, which was subjected to tests.
A minimum glucose agar plate medium (Vital Media AMT-S, manufactured by Kyokuto Pharmaceutical Industrial Co., Ltd.) was used.
The top agar was prepared when used by blending an aqueous solution of 0.5 mM L-histidine and 0.5 mM D-(+)-biotin with an aqueous solution prepared by adding Bacto Agar (Difco) (0.6%) and sodium chloride (0.5%).
S9 was purchased from Kikkoman; whereas a cofactor was previously prepared in accordance with a method known in the art. They were mixed in a customary method to prepare S9 mix.
Using a test system containing S9 mix and a test system containing no S9 mix, a test was carried out in accordance with a preincubation method. As the dose selection, the highest dose was specified as […], which was then serially diluted in a common ratio of 2 to prepare a total of 15 doses to be used in the test.
To a sterile test tube, a test solution (0.1 mL) and 0.1 M Na-phosphate buffer or S9 mix (0.5 mL) and a cell suspension (0.1 mL) were sequentially dispensed. Pre-incubation was carried out at 37° C. for 20 minutes while shaking. After completion of the pre-incubation, top agar (2 mL) kept warm at 45° C. was added, mixed and placed on a minimum glucose agar plate medium. After solidification, the plate was turned upside down and cultured at 37° C. for 48 hours.
After completion of the culture, the state of microbial growth was observed by a stereomicroscope. After a precipitate on the plate was observed, revertant colonies were counted by the naked eye or a colony counter.
7) Criteria for Determination
Growth of both TA98 and TA100 strains was examined in the presence or absence of S9 mix. Among the resultant concentrations at which growth was inhibited, the lowest concentration was specified as the growth inhibitory concentration. Similarly, the bactericidal concentration was specified as the lowest concentration at which all bacterial cells were killed.

[2] = system: K562 human leukemia-derived cell lines; assay: K562 human leukemia cell-proliferation inhibition test; assay type: cell-based; details: K562 cells, 72 hours, viable cells counted with trypan blue
Description: K562 Human Leukemia Cell-Proliferation Inhibition Test
A cell proliferation inhibition test using K562 cells was performed. The activity in the presence of a test substance was compared to the activity in the presence of green tea polyphenol (GTP). The materials used in the test are as follows.
Cells: K562 human leukemia-derived cell lines (DS Pharma Biomedical Co., Ltd.)
Control Substance: Green Tea Polyphenols, abbreviation: GTP (LKT Laboratories, Inc.)
Culture solution: 10% equine serum-supplemented RPMI1640 medium
A test substance and a control substance were used by dissolving each of them in DMSO. To a solution (0.99 mL) containing K562 cells in a cell concentration of 20,000 cells/mL, a test substance solution or a control substance solution (0.01 mL) was added and the cells were cultured. Seventy two hours later, a part of the cells was stained with trypan blue and viable cells were counted by a counting chamber.
In Table 2, “IC50” denotes the sample concentration inhibiting 50% of cell proliferation

[3] = system: TNF-α mRNA expression in RBL-2H3 cells; assay: Validation test in RBL-2H3 cell: TNF-α mRNA expression by antigen stimulation (Real-time PCR); assay type: cell-based, Rat; details: 10 μmol/L, untreated control as 100
Description: 2. Validation Test in RBL-2H3 Cell
(Effect on Inflammation Mediator mRNA Expression by Antigen Stimulation)
After a cell model for an allergic reaction, RBL-2H3 cells, were stimulated by an antigen, mRNA expression level of a typical inflammation mediator, TNF-α, in the cell was measured by a Real-time PCR method. In this manner, a confirmation test for anti-inflammatory effect of Compound 3 was performed.
A test substance (Compound 3) (50 mg) was dissolved by adding 50 vol % ethanol (1 mL) to this to obtain an ethanol solution having a concentration of 50 mg/mL. The resultant solution was diluted with a medium. […] As a control (for comparison), Wortmannin (10 μM) was used. Herein, the concentrations were all indicated as the concentrations in cell supernatants.
RBL-2H3 cells were sensitized with anti-DNP-IgE antibody for 2 hours. A medium or a test solution was added and heat was applied at 37° C. for 10 minutes and then, a DNP-HSA solution was added. A reaction was carried out at 37° C. for 30 minutes. After completion of the reaction, total RNA was extracted from a cell fraction and cDNA was synthesized by use of Random Primer and Reverse Transcriptase. After a specific primer for a desired gene (ITNF-α,β-actin) was added, a Real-time PCR method was carried out in accordance with SYBR Green method using the resultant cDNA as a template to determine the expression level of mRNA. The expression ratio of the desired gene relative to a housekeeping gene, β-actin, was calculated. In this manner, a change in expression level relative to an untreated control was calculated.
Main test conditions and outline of the operation will be described below.
Cell: Rat basophil leukemic cell, RBL-2H3 [Human Sciences Foundation]
Antigen stimulation: Anti-DNP-IgE antibody, DNP labeled albumin
[Sigma-Aldrich Corporation]
Desired genes: IL-4, MCP-1, TNF-α, β-actin (housekeeping gene)
Measurement apparatus: StepOnePlus Real-Time PCR System [Life
Technologies Corporation] Measurement conditions: 95° C. (20 sec)→{95° C. (3 sec)→60° C. (30 sec)}×40 cycles
mRNA expression level (%) was obtained based on the expression level of the untreated control as 100.

[4] = TA98 and TA100, presence or absence of S9 mix
[5] = Homo sapiens, K562, 72 h, read-out: IC50
[6] = lowest concentration at which growth was inhibited, TA98 and TA100, presence or absence of S9 mix

| IC50 [2, 5] [µg/mL] | Structure (SMILES) | Bactericidal action [1, 4] [μg/plate] | Growth inhibition [1, 6] [μg/plate] | further results |
| --- | --- | --- | --- | --- |
|  | O=C(/C=C/c1ccc(O)c(O)c1)Nc1ccc(S(F)(F)(F)(F)F)cc1 [Compound 5, 4-(3,4-dihydroxycinnamoylamino)pentafluorosulfanylbenzene] | 78.1 | 19.5 | IC50 [2]: 0.36 µg/mL (≈ 0.944 µM) |
|  | O=C(Nc1cc(S(F)(F)(F)(F)F)ccc1O)c1cc(O)c(O)c(O)c1 [Compound 12, 3-(3,4,5-trihydroxybenzoylamino)-4-hydroxypentafluorosulfanylbenzene] | 1250 | 313 |  |
|  | O=C(Nc1ccc(S(F)(F)(F)(F)F)cc1NC(=O)c1cc(O)c(O)c(O)c1)c1cc(O)c(O)c(O)c1 [Compound 14, 3,4-bis(3,4,5-trihydroxybenzoylamino)pentafluorosulfanylbenzene] | 1250 | 625 |  |
|  | CC(=O)Oc1ccc(/C=C/C(=O)Oc2ccc(S(F)(F)(F)(F)F)cc2)cc1OC(C)=O [Compound 22, 4-(3,4-diacetoxycinnamoyloxy)pentafluorosulfanylbenzene] | 156 | 156 |  |
| 2 (≈ 5.84 µM) | O=C(Nc1ccc(S(F)(F)(F)(F)F)cc1)c1ccnc(F)c1 [Compound 76, 4-(2-fluoropyridin-4-yl)carbonylaminopentafluorosulfanylbenzene] |  |  |  |
| 3.4 (≈ 10.9 µM) | O=C(Nc1ccc(S(F)(F)(F)(F)F)cc1)c1ncc[nH]1 [Compound 78, 4-(imidazol-2-yl)carbonylaminopentafluorosulfanylbenzene] |  |  |  |
| 4.2 (≈ 12.9 µM) | O=C(Nc1ccc(S(F)(F)(F)(F)F)cc1)c1cnccn1 [Compound 79, 4-(pyrazin-2-yl)carbonylaminopentafluorosulfanylbenzene] |  |  |  |
| 4.9 (≈ 15.7 µM) | O=C(Nc1ccc(S(F)(F)(F)(F)F)cc1)n1cccc1 [Compound 80, 4-(pyrrol-1-yl)carbonylaminopentafluorosulfanylbenzene] |  |  |  |
| 2 (≈ 6.36 µM) | O=C(Nc1ccc(S(F)(F)(F)(F)F)cc1)c1cocn1 [Compound 81, 4-(oxazol-4-yl)carbonylaminopentafluorosulfanylbenzene] |  |  |  |
| 3.6 (≈ 11.5 µM) | O=C(Nc1ccc(S(F)(F)(F)(F)F)cc1)c1cnco1 [Compound 82, 4-(oxazol-5-yl)carbonylaminopentafluorosulfanylbenzene] |  |  |  |
|  | COC[C@H]1OC(=O)c2coc3c2[C@@]1(C)C1=C(C3=O)[C@@H]2CCC(=O)[C@@]2(C)C[C@H]1OC(C)=O [Wortmannin, reference compound] |  |  | TNF-α mRNA expression level [3]: 45% |

| Structure (SMILES) | IC50 [2, 5] [µg/mL] | Bactericidal action [1, 4] [μg/plate] | Growth inhibition [1, 6] [μg/plate] | further results |
| --- | --- | --- | --- | --- |
| CC(=O)Oc1ccc(/C=C/C(=O)Nc2ccc(S(F)(F)(F)(F)F)cc2)cc1OC(C)=O [Compound 4, 4-(3,4-diacetoxycinnamoylamino)pentafluorosulfanylbenzene] | 2.2 (≈ 4.73 µM) | 156 |  | Growth inhibition ([1]; TYPHIMURIUM): <39.1*^1 μg/plate |
| CC(=O)Oc1cc(C(=O)Nc2ccc(S(F)(F)(F)(F)F)cc2)cc(OC(C)=O)c1OC(C)=O [Compound 9, 4-(3,4,5-triacetoxybenzoylamino)pentafluorosulfanylbenzene] | 1.2 (≈ 2.41 µM) | 625 | 156 |  |
| O=C(Nc1cccc(S(F)(F)(F)(F)F)c1)c1cc(O)c(O)c(O)c1 [Compound 11, 3-(3,4,5-trihydroxybenzoylamino)pentafluorosulfanylbenzene] | 1.5 (≈ 4.04 µM) | 625 | 78.1 |  |
| COc1cc(/C=C/C(=O)Nc2ccc(S(F)(F)(F)(F)F)cc2)ccc1OC(C)=O [Compound 20, 4-(4-acetoxy-3-methoxycinnamoylamino)pentafluorosulfanylbenzene] | 1.7 (≈ 3.89 µM) |  | 156 |  |
| O=C(/C=C/c1ccccc1)Nc1ccc(S(F)(F)(F)(F)F)cc1 [Compound 35, 4-(cinnamoylamino)pentafluorosulfanylbenzene] | 0.2 (≈ 0.573 µM) | >2500 | 39.1 |  |
